Experimental data as given in patent publication US9809623B2, “α4β7 peptide monomer and dimer antagonists” (Protagonist Therapeutics, Inc., priority 2014, dated 2017).
Numbered stars: 1 amine (or outer) side, 2 acyl side, 3 side chain; on linkers, the order of the positions; unused ones are H or OH. Bridge positions count the residues as written; N and C are the ends. Square brackets hold non-standard residues; d marks the D form. Peptide text beside a SMILES is read from it. I, II: the chains in the order shown. 2Nal = N[C@@H](Cc1ccc2ccccc2c1)C(=O)O; Diglycolyl = O=C(COCC(=O)[*:2])[*:1]; NMeR = CN[C@@H](CCCNC(=N)N)C(=O)O; NMeK = CN[C@@H](CCCCN)C(=O)O; Pen = CC(C)(S)[C@H](N)C(=O)O; dNMeK = CN[C@H](CCCCN)C(=O)O

Experiments:
[1] = Intestinal Wash Assay; type: in vitro ADME; set-up: dose or concentration left out as unconfirmed; conditions: rat, rat intestinal wash fluid (small intestine); Table 4-C, t1/2
Method: Intestinal wash assay solution was prepared from rats fasted for at least 6 hours prior. The animals were euthanized and a midline incision was made from the point of the jaw to the pubis. The abdomen and chest were opened by making 2 incisions through the anterior chest wall on either side. Hemostats were used to clamp off both ends of the animal's stomach—where the esophagus meets the stomach and where the stomach meets the duodenum. A hemostat was also used to clamp 2-3 cm down the intestine from where the stomach meets the duodenum.
Intestinal wash assay solution was prepared by separating 20 cm of the small intestine from the body. Once separated 20 cm, the end was clamped with a hemostat and the section cut from the body, leaving the hemostats in place on the removed section. 1 mL of chilled saline was drawn up with a 1 mL syringe. One end of the intestine was held up and the clamp removed. Approximately 2-2.5 cm of the gavage needle was inserted into the intestine, and the saline was slowly injected. The fluid was massaged down the length of the intestine using gloved fingers. The gavage needle was removed and the clamp was replaced on the end of the intestine. The intestine was sat straight and a q-tip was run firmly up and down the length of the outside of the intestine approximately 3-6 times to mix the enzymes with the saline. One end of the intestine was held up and some of the fluid was carefully moved at the top down. The clamp was removed and that end of the intestine was set into a small weigh boat on ice. The other end of the intestine was carefully picked up and held vertically. Gloved fingers were gently run down it to squeeze the fluid into the container. The previous steps saline injection and fluid procurement steps were repeated twice using only 0.5 mL of chilled saline. The sample was pipetted from the weigh boat into a centrifuge tube and placed on ice. All intestinal wash samples were spun down in a cold centrifuge at 12,000×g for 10 minutes. The supernatant from the top of each centrifuged sample was pipetted into cryotubes, and kept on ice until use.
Intestinal wash assays were performed using intestinal wash assay solution prepared as described above. A sufficient amount of rat intestinal wash was thawed. For each sample, 200 uL of rat intestinal wash fluid was pipetted into 1.5 mL Eppendorf tubes (number of tubes for experiment=number of test peptides×N). The tubes were pre-incubated for about 10 minutes in a water bath at 37° C.
Peptide working solutions ([…]) were prepared by combining 2 μl of 10 mM DMSO stock with 128 μl 100 mM Tris pH 7.5.
Peptide quench solvent (50% ACN-50% MeOH-5% Formic Acid)+IS (5 ug/ml; 1 ul of 10 mg/mL IS per 2 mL quench solvent) was prepare and a quench plate prepared and placed on ice. 200 ul of quench solution was added to each well of the quench plate for T=0, 10, 20, 30, 60 and 180 min collection.
For each test sample and a positive control, 30 ul of peptide working solution was added to a tube of intestinal wash fluid. The tube was gently vortexed and 30 ul was immediately removed and quenched in T=0 well of quench plate (pipetted directly into the quench solution). This well was covered tightly to prevent evaporation. 30 ul aliquots were removed at T=10 min, T=20 min, T=30 min, T=60 min, and T=180 min, and quenched. When all time points were collected, the quench plate was centrifuged at 10,000 rpm for 10 minutes. 150 uL of each supernatant was transferred to a polypropylene 96-well collection plate. 300 ul Mobile Phase A was added to each collection, and LC/MS/MS analysis was performed to determine the amount or concentration of peptide remaining in each test sample and positive control.

[2] = Cysteine/Cystine Redox Stability Assay; type: physicochemical; conditions: Table 4-C; ORP where half of the oxidized peptide remains
Method: Peptides were diluted to 90 μM by adding 4.545 μl of a 10 mM peptide DMSO stock to 495.45 μl of 100 mM Tris-Cl, pH 7.5. Aliquots of […] were transferred to 8 wells down a column of a 96 well plate. 20 μl of 2.5 mM Cystine in 100 mM Tris-Cl, pH 7.5 was added to each well. Cysteine stock solutions in 100 mM Tris-Cl, pH 7.5 were prepared fresh at the following concentrations: 400 mM, 200 mM, 80 mM, 44 mM, 22 mM, 11 mM, 5.5 mM and blank. At time 0, 25 μl of each cysteine stock solution was added to the 55 μl of cystine/peptide solution, and the mixture was incubated at room temperature for 40 min. The samples were quenched by adding 20 μl of 5M acetic acid and analyzed by reverse phase HPLC. The fraction of oxidized peptide was calculated and plotted against the calculated oxidation reduction potential (ORP) as defined by the Nernst equation. The ORP where half of the oxidized peptide remains is shown below.

SMILES	half-life [1]	Cys/CySS (mV) [2]
CC(=O)N[C@H]1CSSC[C@@H](C(=O)NCC(=O)N[C@@H](CCC(=O)O)C(N)=O)NC(=O)[C@H](CC(C)C)NC(=O)[C@H]([C@@H](C)O)NC(=O)[C@H](CC(=O)O)NC(=O)[C@H](CO)NC(=O)[C@H](CCCNC(=N)N)N(C)C1=O [compound 198, Ac-C-N-Me-R-S-D-T-L-C-G-E-NH2] (Ac-C[NMeR]SDTLCGE-NH2; disulfide 1-7)	0.5 h	
CC(=O)N[C@@H]1C(=O)N(C)[C@@H](CCCNC(=N)N)C(=O)N[C@@H](CO)C(=O)N[C@@H](CC(=O)O)C(=O)N[C@@H]([C@@H](C)O)C(=O)N[C@@H](CC(C)C)C(=O)N[C@H](C(=O)N[C@@H](Cc2c[nH]c3ccccc23)C(=O)N[C@H](CCCCN)C(N)=O)C(C)(C)SSC1(C)C [compound 208, Ac-Pen-N-Me-R-S-D-T-L-Pen-W-k-NH2] (Ac-[Pen][NMeR]SDTL[Pen]W[dK]-NH2; disulfide 1-7)		<−300 mV
CC(=O)N[C@@H]1C(=O)N(C)[C@@H](CCCNC(=N)N)C(=O)N[C@@H](CO)C(=O)N[C@@H](CC(=O)O)C(=O)N[C@@H]([C@@H](C)O)C(=O)N[C@@H](CC(C)C)C(=O)N[C@H](C(=O)N[C@@H](Cc2ccc3ccccc3c2)C(=O)N[C@@H](CCC(=O)O)C(=O)N[C@H](CCCCN)C(N)=O)C(C)(C)SSC1(C)C [compound 210, Ac-Pen-N-Me-R-S-D-T-L-Pen-2-Nal-E-k-NH2] (Ac-[Pen][NMeR]SDTL[Pen][2Nal]E[dK]-NH2; disulfide 1-7)		<−300 mV
CC(=O)N[C@@H]1C(=O)N(C)[C@@H](CCCNC(=N)N)C(=O)N[C@@H](CO)C(=O)N[C@@H](CC(=O)O)C(=O)N[C@@H]([C@@H](C)O)C(=O)N[C@@H](CC(C)C)C(=O)N[C@H](C(=O)N[C@@H](Cc2c[nH]c3ccccc23)C(=O)N[C@H](CCC(=O)O)C(=O)N[C@H](CCCCNC(=O)COCC(=O)NCCCC[C@@H](NC(=O)[C@@H](CCC(=O)O)NC(=O)[C@H](Cc2c[nH]c3ccccc23)NC(=O)[C@H]2NC(=O)[C@H](CC(C)C)NC(=O)[C@H]([C@@H](C)O)NC(=O)[C@H](CC(=O)O)NC(=O)[C@H](CO)NC(=O)[C@H](CCCNC(=N)N)N(C)C(=O)[C@@H](NC(C)=O)C(C)(C)SSC2(C)C)C(N)=O)C(N)=O)C(C)(C)SSC1(C)C [compound 211, (Ac-Pen-N-Me-R-S-D-T-L-Pen-W-e-k-NH2)2-DIG] (I: Ac-[Pen][NMeR]SDTL[Pen]W[dE][dK]-NH2 / II: Ac-[Pen][NMeR]SDTL[Pen]W[dE][dK]-NH2; disulfide I:1-I:7, II:1-II:7 (inferred); linker I:10-II:10 via Diglycolyl (inferred))	2.98 h	
CC(=O)N[C@@H]1C(=O)N(C)[C@@H](CCCNC(=N)N)C(=O)N[C@@H](CO)C(=O)N[C@@H](CC(=O)O)C(=O)N[C@@H]([C@@H](C)O)C(=O)N[C@@H](CC(C)C)C(=O)N[C@H](C(=O)N[C@@H](Cc2ccc3ccccc3c2)C(=O)N[C@@H](CCC(=O)O)C(=O)N[C@H](CCCCNC(=O)COCC(=O)NCCCC[C@@H](NC(=O)[C@H](CCC(=O)O)NC(=O)[C@H](Cc2ccc3ccccc3c2)NC(=O)[C@H]2NC(=O)[C@H](CC(C)C)NC(=O)[C@H]([C@@H](C)O)NC(=O)[C@H](CC(=O)O)NC(=O)[C@H](CO)NC(=O)[C@H](CCCNC(=N)N)N(C)C(=O)[C@@H](NC(C)=O)C(C)(C)SSC2(C)C)C(N)=O)C(N)=O)C(C)(C)SSC1(C)C [compound 212, (Ac-Pen-N-Me-R-S-D-T-L-Pen-2-Nal-E-k-NH2)2-DIG] (I: Ac-[Pen][NMeR]SDTL[Pen][2Nal]E[dK]-NH2 / II: Ac-[Pen][NMeR]SDTL[Pen][2Nal]E[dK]-NH2; disulfide I:1-I:7, II:1-II:7 (inferred); linker I:10-II:10 via Diglycolyl (inferred))	1.63 h	
CC(=O)N[C@@H]1C(=O)N(C)[C@@H](CCCNC(=N)N)C(=O)N[C@@H](CO)C(=O)N[C@@H](CC(=O)O)C(=O)N[C@@H]([C@@H](C)O)C(=O)N[C@@H](CC(C)C)C(=O)N[C@H](C(=O)N[C@@H](Cc2c[nH]c3ccccc23)C(=O)N[C@@H](CCC(=O)O)C(=O)N(C)[C@H](CCCCNC(=O)COCC(=O)NCCCC[C@H](C(N)=O)N(C)C(=O)[C@H](CCC(=O)O)NC(=O)[C@H](Cc2c[nH]c3ccccc23)NC(=O)[C@H]2NC(=O)[C@H](CC(C)C)NC(=O)[C@H]([C@@H](C)O)NC(=O)[C@H](CC(=O)O)NC(=O)[C@H](CO)NC(=O)[C@H](CCCNC(=N)N)N(C)C(=O)[C@@H](NC(C)=O)C(C)(C)SSC2(C)C)C(N)=O)C(C)(C)SSC1(C)C [compound 214, [Ac-Pen-(N-Me-Arg)-Ser-Asp-Thr-Leu-Pen-Trp-Glu-(N-Me-D-Lys)-NH2]2-DIG] (I: Ac-[Pen][NMeR]SDTL[Pen]WE[dNMeK]-NH2 / II: Ac-[Pen][NMeR]SDTL[Pen]WE[dNMeK]-NH2; disulfide I:1-I:7, II:1-II:7 (inferred); linker I:10-II:10 via Diglycolyl (inferred))	> 6 h	
CC(=O)N[C@@H]1C(=O)N(C)[C@@H](CCCNC(=N)N)C(=O)N[C@@H](CO)C(=O)N[C@@H](CC(=O)O)C(=O)N[C@@H]([C@@H](C)O)C(=O)N[C@@H](CC(C)C)C(=O)N[C@H](C(=O)N[C@@H](Cc2c[nH]c3ccccc23)C(=O)N[C@@H](CCC(=O)O)C(=O)N(C)[C@@H](CCCCNC(=O)COCC(=O)NCCCC[C@@H](C(N)=O)N(C)C(=O)[C@H](CCC(=O)O)NC(=O)[C@H](Cc2c[nH]c3ccccc23)NC(=O)[C@H]2NC(=O)[C@H](CC(C)C)NC(=O)[C@H]([C@@H](C)O)NC(=O)[C@H](CC(=O)O)NC(=O)[C@H](CO)NC(=O)[C@H](CCCNC(=N)N)N(C)C(=O)[C@@H](NC(C)=O)C(C)(C)SSC2(C)C)C(N)=O)C(C)(C)SSC1(C)C [compound 215, [Ac-Pen-(N-Me-Arg)-Ser-Asp-Thr-Leu-Pen-Trp-Glu-(N-Me-Lys)-NH2]2-DIG] (I: Ac-[Pen][NMeR]SDTL[Pen]WE[NMeK]-NH2 / II: Ac-[Pen][NMeR]SDTL[Pen]WE[NMeK]-NH2; disulfide I:1-I:7, II:1-II:7 (inferred); linker I:10-II:10 via Diglycolyl (inferred))	> 6 h	
CC(=O)N[C@@H]1C(=O)N(C)[C@@H](CCCNC(=N)N)C(=O)N[C@@H](CO)C(=O)N[C@@H](CC(=O)O)C(=O)N[C@@H]([C@@H](C)O)C(=O)N[C@@H](CC(C)C)C(=O)N[C@H](C(=O)N[C@@H](Cc2c[nH]c3ccccc23)C(=O)N[C@H](CCC(=O)O)C(=O)N[C@H](CCCCNC(=O)COCC(=O)NCCCC[C@@H](NC(=O)[C@@H](CCC(=O)O)NC(=O)[C@H](Cc2c[nH]c3ccccc23)NC(=O)[C@H]2NC(=O)[C@H](CC(C)C)NC(=O)[C@H]([C@@H](C)O)NC(=O)[C@H](CC(=O)O)NC(=O)[C@H](CO)NC(=O)[C@H](CCCNC(=N)N)N(C)C(=O)[C@@H](NC(C)=O)C(C)(C)SSC2(C)C)C(=O)O)C(=O)O)C(C)(C)SSC1(C)C [compound 216, (Ac-Pen-N-Me-R-S-D-T-L-Pen-W-e-k-OH)2-DIG] (I: Ac-[Pen][NMeR]SDTL[Pen]W[dE][dK]-OH / II: Ac-[Pen][NMeR]SDTL[Pen]W[dE][dK]-OH; disulfide I:1-I:7, II:1-II:7 (inferred); linker I:10-II:10 via Diglycolyl (inferred))	> 6 h	
